Like-named read-outs stand apart in the source and are kept apart here.
Key:
AMPA receptor = assay: Glutamate (100 μM)-evoked calcium influx in DIV9 dissociated rat forebrain neurons; format: cell-based; settings: for EC50 / Emax (%) / pEC50 (-logEC50): Glutamate (100 μM)-evoked Ca2+ influx; for enhancement of glutamate-evoked calcium influx, in words: glutamate 100 μM, DIV9 dissociated rat forebrain neurons cultured on PND1
From the text: Fluorometric readings were taken from each well every 1.7 seconds for 20 seconds before any addition to record baseline value and for 70 seconds after addition of any compound(s) to monitor the induced changes of calcium influx. Each well's peak fluorescence reading after addition of compound(s) represents effect of a certain concentration of a given compound(s) after subtracting the average baseline fluorescence. Peak fluorometric reading from duplicate or triplicate wells was averaged, and represents the effect of a certain concentration on calcium influx after subtracting control value. […] points were fitted with a sigmoidal function (bottom asymptote=100, nHill=1) by using Prism from GraphPad (San Diego, Calif.) to determine the compound's EC50 (affinity or potency). Each compound's EC50 was summarized from at least 3 individual experiments and presented as the mean±SE.

[1] = system: PCP-induced caspase-3 activity; assay: PCP-induced caspase-3 enzyme activity in organotypic cortical-striatal slices, modulation of the (±)AMPA effect; format: cell-based, rat; settings: for modulation of AMPA effect on PCP-induced caspase-3 activity, in words: AMPA 1 μM, FIG. 2A-2B; for IC50: Rattus norvegicus
Protocol: The inventors have designed and chemically synthesized a class of new bivalent AMPAR ligands (see examples in Table 1). […] The neuroprotective effect of (±)APMA on PCP-induced caspase-3 activities was potentiated by cyclothiazide (CTZ) and aniracetam, two existing AMPAR ligands (approximate IC50 1-3 μM, FIG. 2A for CTZ).
B. Measurement of Caspase-3 Enzyme Activities
Compounds showing significant AMPAR PAM effects on glutamate-induced calcium influx in HEK293 expressing hGluA1i/3i were further tested for their ability to prevent PCP-induced caspase-3 activation in our established in vitro organotypic slice model (Wang et al., Neuropsychopharmacology 32(5): 1178-1194, 2007). Initial screening includes two steps. In step one, all candidates were tested in a single experiment to determine an appropriate approximate concentration range for its effect on PCP-induced caspase-3 activity by adding eight serial concentrations of the compound at log intervals (0, 0.0001-10 μM). Compounds showing promising ˜IC50 (<10 μM) and slope (0.8-1.20) was further screened in a paradigm in which each selected compound was tested in 3 independent experiments to determine its IC50 and slope values by adding eight serial concentrations of the compound at approximately half-log intervals. For all initial screening experiments, rat organotypic brain slice cultures were prepared as previously described (Wang et al., Neuropsychopharmacology 32(5): 1178-1194, 2007). All experiments were executed on DIV10. In each experiment, the slices were pre-treated with the solution vehicle (0.1% DMSO) or 6 serial concentrations of the new compounds for 15 min, followed with (±)APMA (1 μM) (or its vehicle, 0.1% DMSO) for another 15 min. PCP (3 μM) or its vehicle (saline) was added and incubation continued for 6 hrs. The superficial cortical layers of each treated slice were harvested with the aid of an inverted microscopy and placed into ice-cold lysis buffer. Supernatants were collected and caspase-3 activity measured as described previously (Wang et al., Neuropsychopharmacology 32(5): 1178-1194, 2007). Caspase-3 activity was measured over 60 min and calculated as the difference between the substrate degradation rate in samples containing and those not containing Z-DEVD-FMK, a selective caspase-3 inhibitor. Data are expressed as DEVDase activity (AFC pmoles/mg protein/60 min). Protein was measured by the bicinchoninic acid (BCA) technique (Smith et al., 1985), using bovine serum albumin as standards. Each activity measurement was averaged from duplicate samples. Baseline activity (saline treated) was subtracted from all treatments. The caspase-3 activity of in slices incubated with PCP alone served as a positive control. Each compound's activity was normalized to the protective effect of (±)AMPA against PCP (100%). IC50 and slope values were analyzed and determined with the SigmaPlot four-parameter equation as described previously (Petukhov et al., J Med Chem 47(12): 3009-3018, 2004). Each compound's IC50 and slope values were determined from data in at least 3 individual experiments. Group data is reported as mean±SEM.

morphine tolerance = assay: Morphine tolerance, tail-flick test; format: in vivo, mouse; settings: 10 mg/kg
Protocol: The tail-flick test was used to determine basal nociception and morphine antinociception as described previously (Wang et al., J Neurosci 21:1779-86, 2001; Tang et al., J Pharmacol Exp Ther 317:901-909, 2006). In brief, One third of the distal portion of mouse tail was immersed into a water bath maintained at 52° C., and the latency of a quick tail-flick response was recorded. Morphine-antinociception was evaluated 30 min after a test dose of morphine (10 mg/kg s.c. unless otherwise stated) and is expressed as the percentage of maximal possible effect (MPE). MPE %=100%×(postdrug latency−predrug latency)/(cutoff−predrug latency). A 12-s cutoff time was used to prevent tissue damage (FIG. 9A and FIG. 10A).
(§1) G. Chronic Opioid Tolerance and Dependence.
(§2) To induce chronic opioid tolerance and dependence, mice were treated with morphine (10 mg/kg s.c., given at 8:00 AM and 6:00 PM) for 5 days (Herz and Teschemacher, Experientia 29:64-65, 1973). Control mice received an equal number and volume of injections with saline. Morphine tolerance and naloxone-precipitated withdrawal were evaluated. Haloperidol (0.1-1.0 mg/kg i.p. or p.o.) was given 30 min before the test dose of morphine or naloxone (FIG. 9B and FIG. 10B).

[2] = system: morphine physical dependence; assay: Morphine physical dependence, naloxone-precipitated withdrawal; format: in vivo, mice; settings: 10 mg/kg
Protocol: as §1, §2

[3] = system: PCP-induced cleaved caspase-3 immunoreactive neurons in frontal cortex (M2/1); assay: Image analysis of cleaved caspase-3 immunoreactive neurons in frontal cortex (M2/1) of PND7 rats exposed to PCP; format: in vivo, rat
Protocol: Cleaved caspase-3 immunoreactive neurons, 8 hrs on PND7 after Saline (A) or PCP (10 mg/kg, sc, B-E) without (A-B) or with (C-E) pretreatment (30 min prior to PCP) of HJC-1-22 (C, 0.1 mg/kg; D, 1 mg/kg; E, 10 mg/kg, sc) were shown.
C. Image Analysis of Cleaved Caspase-3 Immunoreactive Neurons
PCP induces developmental neuroapoptosis via caspase-3 activation in vulnerable neurons (Wang et al., Neuropsychopharmacology 32(5): 1178-1194, 2007). Caspase-3 activation in vivo can be observed by immunohistochemistry with specific antibodies against cleaved caspase-3 protein and quantified by image analysis of cleaved caspase-3 immunoreactive neurons in specific brain region(s) or sub-region(s) in developing brain. Compounds showing significant AMPAR PAM effects on glutamate-induced calcium influx in HEK293 expressing hGluA1i/3i and significant preventive effect on PCP-induced caspase-3 enzyme activities in organotypic slices were further defined their abilities to block PCP-induced apoptosis in vivo.
PND7 rat pups were used in the in vivo studies. […]
In step 1, each candidate was tested in two (n=2) individual experiments by using PND7 rat pups from 2 different liters. […] The activity percentages (%) of each dose vs. PCP were calculated to estimate its IC50 which was used to determine its in vivo effective dose range for the step 2 study. […]

[4] = existing AMPAR ligands, FIG. 2A for CTZ, read-out: approximate IC50, potentiation of neuroprotective effect of (±)AMPA on PCP-induced caspase-3 activities
[5] = organotypic slices, (±)AMPA 1 μM, PCP 3 μM, read-out: IC50, modulation of (±)AMPA effect on PCP-induced caspase-3 activity

Row | SMILES | EC50 (AMPA receptor) [nM] | Emax (%) (AMPA receptor) | pEC50 (-logEC50) (AMPA receptor) | modulation of AMPA effect on PCP-induced caspase-3 activity, in words ([1]; PCP 3 μM) | enhancement of glutamate-evoked calcium influx, in words (AMPA receptor) | further results
1 | CC(C)S(=O)(=O)NC[C@H](C)c1ccc(-n2ccc3ncccc32)cc1 [HJC0229, Propane-2-sulfonic acid [2-(4-pyrrolo[3,2-b]pyridin-1-yl-phenyl)-propyl]amide] | 8.76 | 168.9 | 8.06 | – | – | –
2 | NS(=O)(=O)c1cc2c(cc1Cl)NC(C1CC3C=CC1C3)NS2(=O)=O (centres unmarked) [CTZ, cyclothiazide, reference compound] | – | – | – | concentration-dependent fashion | – | IC50 [1, 4]: 1000 to 3000 nM
3 | CC(C)S(=O)(=O)NC[C@H](C)c1ccc(-n2ccc3cc(C(=O)N4CCCC4)ccc32)cc1 [HJC0210, Propane-2-sulfonic acid (2-{4-[5-(pyrrolidine-1-carbonyl)-indol-1-yl]-phenyl}-propyl)amide] | 0.06 | 157.5 | 10.21 | – | enhanced glutamate (100 μM)-evoked calcium influx in a concentration-dependent manner | –
4 | CC(C)S(=O)(=O)NC[C@H](C)c1ccc(-c2ccc(CCNS(C)(=O)=O)cc2)cc1 [LY451395, reference compound] | – | – | – | – | enhanced glutamate (100 μM)-evoked calcium influx in a concentration-dependent manner | –
5 | COc1ccc(C(=O)N2CCCC2=O)cc1 [aniracetam, reference compound] | – | – | – | – | – | IC50 [1, 4]: 1000 to 3000 nM
6 | CC(C)S(=O)(=O)NC[C@H](C)c1ccc(-c2ccnc(C(=O)N3CCCC3)c2)cc1 [HJC-1-22, Propane-2-sulfonic acid (2-{4-[2-(pyrrolidine-1-carbonyl)-pyridin-4-yl]phenyl}-propyl)-amide] | 6.53 | 170.0 | 8.28 | displayed more potent activity than LY451395 | enhanced glutamate (100 μM)-evoked calcium influx in a concentration-dependent manner | reversal of established morphine tolerance (morphine tolerance; FIG. 9A): reversed established morphine tolerance; prevention of development of morphine tolerance (morphine tolerance; FIG. 10A): prevented the development of morphine tolerance; IC50 [1, 5]: 15 nM; reversal of morphine physical dependence ([2]; FIG. 9B): partially reversed physical dependence; prevention of morphine physical dependence ([2]; FIG. 10B): partially prevented physical dependence; prevention of PCP (10 mg/kg)-induced caspase-3 activation in frontal cortex ([3]; 10 mg/kg sc, 30 min prior to PCP (10 mg/kg, sc)): 85%; effect on PCP-induced cleaved caspase-3 immunoreactive neurons in frontal cortex (M2/1), in words ([3]; 0.1, 1, 10 mg/kg sc, 30 min prior to PCP, 8 hrs): significantly reduced PCP-induced cleaved caspase-3 immunoreactive neurons
7 | CC(C)S(=O)(=O)NC[C@H](C)c1ccc(-n2ccc3cc(C(=O)N4CCCCC4)ccc32)cc1 [HJC-1-24, Propane-2-sulfonic acid (2-{4-[5-(piperidine-1-carbonyl)-indol-1-yl]-phenyl}-propyl)amide] | – | – | – | displayed more potent activity than LY451395 | – | IC50 [1, 5]: 5 nM; fold more potent than CTZ (IC50, caspase-3 activity) ([1]; versus CTZ): at least 200 fold
8 | CC(C)S(=O)(=O)NC[C@H](C)c1ccc(-c2ccc(CCN3CCCC3=O)cc2)cc1 [HJC0173, Propane-2-sulfonic acid (2-{4′-[2-(2-oxo-pyrrolidin-1-yl)-ethyl]-biphenyl-4-yl}-propyl)amide] | 4.02 | 127.1 | 8.39 | – | – | –

Reference: patent US9328125B2, “Bivalent AMPA receptor positive allosteric modulators” (The Board of Regents of the University of Texas System, priority 2012, dated 2016)
